According to patent publication US20260092061A1, “COMPOUNDS FOR TARGETED PROTEIN DEGRADATION” (Amphista Therapeutics Limited, priority 2022, published 2026):
Like-named read-outs stand apart in the source and are kept apart here.

Molecular target: T1, BRD9 (Homo sapiens, UniProt Q9H8M2)
T1 sequence (Q9H8M2 1-597): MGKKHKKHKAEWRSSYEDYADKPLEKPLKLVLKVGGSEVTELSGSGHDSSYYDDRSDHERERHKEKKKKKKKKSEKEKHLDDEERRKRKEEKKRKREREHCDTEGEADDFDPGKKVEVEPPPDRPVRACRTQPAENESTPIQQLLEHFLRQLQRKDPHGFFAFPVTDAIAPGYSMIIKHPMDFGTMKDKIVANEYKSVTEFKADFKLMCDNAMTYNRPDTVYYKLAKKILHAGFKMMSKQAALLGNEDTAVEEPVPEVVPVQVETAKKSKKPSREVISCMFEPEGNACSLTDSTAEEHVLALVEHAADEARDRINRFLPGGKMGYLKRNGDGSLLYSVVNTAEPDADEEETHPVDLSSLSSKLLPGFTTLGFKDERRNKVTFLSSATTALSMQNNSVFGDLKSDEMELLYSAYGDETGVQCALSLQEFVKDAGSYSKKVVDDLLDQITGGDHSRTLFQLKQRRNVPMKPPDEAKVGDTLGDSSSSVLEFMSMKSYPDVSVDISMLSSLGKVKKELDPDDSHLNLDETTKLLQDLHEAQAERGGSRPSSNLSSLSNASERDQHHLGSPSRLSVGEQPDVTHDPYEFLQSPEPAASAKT
Assay: Degradation of BRD9 (IF), immunofluorescence in MV4-11 cells, 24 hours (Assay Protocol 2)
Assay type: cell-based
Set-up: A suspension of MV4-11 cells (ATCC CRL-9591) was prepared; host or cells: MV4-11
Details: BRD9 degradation; for DC50: Assay protocol 2, read-out: DC50
Protocol: Assay Protocol 2—Degradation of BRD9 (IF)
A suspension of MV4-11 cells (ATCC CRL-9591) was prepared in phenol red-free assay media (IMDM Thermo Scientific 21056023+10% FBS ATCC 302025) and cells were seeded at 20,000 cells per well (45 μL) in sterile black poly-d-lysine coated 384 well plates (Greiner 781948). Compounds were prepared at 1000× final concentration in DMSO, diluted 1:100 in assay media, and 5 μL compound was added to each well of the cell plate. Cells were incubated for 24 hours at 37° C. with 5% CO2. All the following incubations for immunofluorescence staining were at room temperature. 15 μL of 16% PFA was added to each well (3.7% final concentration) and the cells were fixed for 15 min then washed twice with DPBS. Cells were permeabilised with 0.1% Triton X-100 for 10 min, Triton X-100 was removed, then blocked with 1% BSA in DPBS for 1 hour. Cells were stained with 25 μL anti-BRD9 E4Q3F antibody (CST 48306) diluted 1:25600 in 1% BSA in DPBS for 2-3 hours. Wels were washed twice with DPBS then incubated with 25 μL of 1% BSA containing a 1:1000 dilution of Anti-rabbit Alexa Fluor™ 647 secondary antibody (Thero Scientific A21244) and 1 μg/mL Hoechst nuclear counter stain (Abcam ab228551) for 1 hour. Wells were washed twice with DPBS prior to imaging on a Perkin Elmer Operetta CLS with 10× air lens. Images were processed using Harmony High-Content Imaging and Analysis Software (Perkin Elmer) and the mean contrast ratio of Alexa Fluor™ 647 in central nuclei was used to quantify BRD9 protein levels. Data was further analysed using Dotmatics software and % BRD9 remaining was calculated by normalisation to average data from high and low control wells (cells treated with DMSO or 100 nM CFT-8634 respectively).

[1] = MV4-11, Assay protocol 2, read-out: Dmax

Row | Compound | DC50 [nM] | Dmax [1] [%] | Dmax (MV4-11, Table 4, determined according to Assay Protocol 2, read-out: Dmax^2) [%]
1 | COc1cc(-c2cn(C)c(=O)c(C)c2C)cc(OC)c1CN1CCN(Cc2cccc3c2CCN(C(=O)/C(C#N)=C/c2cccc(Br)n2)C3C)C(C(C)C)C1 (mixture of isomers) [Compound B131, (E/Z)-3-(6-bromopyridin-2-yl)-2-(5-((4-(2,6-dimethoxy-4-(1,4,5-trimethyl-6-oxo-1,6-dihydropyridin-3-yl)benzyl)-2-isopropylpiperazin-1-yl)methyl)-1-methyl-1,2,3,4-tetrahydroisoquinoline-2-carbonyl)acrylonitrile] | 1.25 to 10 | > 75 | –
2 | COc1cc(-c2cn(C)c(=O)c(C)c2C)cc(OC)c1CN1CCN(Cc2cccc3c2CCN(C(=O)/C(C#N)=C/C(C)(C)C)C3C)[C@H](C)C1 (mixture of isomers) [Compound B119, (E/Z)-2-(5-(((R)-4-(2,6-dimethoxy-4-(1,4,5-trimethyl-6-oxo-1,6-dihydropyridin-3-yl)benzyl)-2-methylpiperazin-1-yl)methyl)-1-methyl-1,2,3,4-tetrahydroisoquinoline-2-carbonyl)-4,4-dimethylpent-2-enenitrile] | 10 to 25 | 40 to 70 | –
3 | COc1cc(-c2cn(C)c(=O)c(C)c2C)cc(OC)c1CN1CCN(Cc2ccc3c(c2)[C@H](C)N(C(=O)/C(C#N)=C/C(C)(C)CF)CC3)C2(CC2)C1 (single isomer, unassigned) [Compound B201, (E/Z)-2-(7-((7-(2,6-dimethoxy-4-(1,4,5-trimethyl-6-oxo-1,6dihydropyridin-3-yl)benzyl)-4,7-diazaspiro[2.5]octan-4-yl)methyl)-1-methyl-1,2,3,4-tetrahydroisoquinoline-2-carbonyl)-5-fluoro-4,4-dimethylpent-2-enenitrile] | 25 to 1000 | 40 to 70 | –
4 | COc1cc(-c2cn(C)c(=O)c(C)c2C)cc(OC)c1CN(C)C1CCN(C(=O)/C(C#N)=C/c2cccc(C(F)(F)F)n2)CC1 [BRD9aa, (E/Z)-2-(4-((2,6-dimethoxy-4-(1,4,5-trimethyl-6-oxo-1,6-dihydropyridin-3-yl)benzyl)(methyl)amino)piperidine-1-carbonyl)-3-(6-(trifluoromethyl)pyridin-2-yl)acrylonitrile] | – | – | > 70
5 | COc1cc(-c2cn(C)c(=O)c(C)c2C)cc(OC)c1CN1CCN(Cc2cccc3c2CCN(C(=O)/C(C#N)=C/C(C)(C)C)C3C)CC12CC2 (mixture of isomers) [Compound B103, (E/Z)-2-(5-((4-(2,6-dimethoxy-4-(1,4,5-trimethyl-6-oxo-1,6-dihydropyridin-3-yl)benzyl)-4,7-diazaspiro[2.5]octan-7-yl)methyl)-1-methyl-1,2,3,4-tetrahydroisoquinoline-2-carbonyl)-4,4-dimethylpent-2-enenitrile] | 1.25 to 10 | > 75 | –
6 | COc1cc(-c2cn(C)c(=O)c(C)c2C)cc(OC)c1CN1CCN(C(=O)CCCCOc2ccc(C3CCCN3C(=O)/C(C#N)=C/c3nccs3)cc2)CC1 (mixture of isomers) [Compound B82] | 25 to 1000 | 40 to 70 | –

More lines, now with the values ahead:

Row | DC50 [nM] | Dmax [1] [%] | Dmax (MV4-11, Table 4, determined according to Assay Protocol 2, read-out: Dmax^2) [%] | Compound
7 | 1.25 to 10 | > 75 | – | COc1cc(-c2cn(C)c(=O)c(C)c2C)cc(OC)c1CN1CCN(Cc2cccc3c2CCN(C(=O)/C(C#N)=C/C(C)(C)CF)C3C(C)C)CC12CC2 (mixture of isomers) [Compound C25, (E/Z)-2-(5-((4-(2,6-dimethoxy-4-(1,4,5-trimethyl-6-oxo-1,6-dihydropyridin-3-yl)benzyl)-4,7-diazaspiro[2.5]octan-7-yl)methyl)-1-isopropyl-1,2,3,4-tetrahydroisoquinoline-2-carbonyl)-5-fluoro-4,4-dimethylpent-2-enenitrile]
8 | 25 to 1000 | 40 to 70 | – | COc1cc(-c2cn(C)c(=O)c(C)c2C)cc(OC)c1CN1CCN(Cc2cccc3c2CCN(C(=O)/C(C#N)=C/C(C)(C)CF)C3C(C)C)CC12CC2 (single isomer, unassigned) [Compound C102, (E/Z)-2-(5-((4-(2,6-dimethoxy-4-(1,4,5-trimethyl-6-oxo-1,6-dihydropyridin-3-yl)benzyl)-4,7-diazaspiro[2.5]octan-7-yl)methyl)-1-isopropyl-1,2,3,4-tetrahydroisoquinoline-2-carbonyl)-5-fluoro-4,4-dimethylpent-2-enenitrile]
